Results reported in patent US20190030048A1, “CASEIN MICELLES FOR NANOENCAPSULATION OF HYDROPHOBIC COMPOUNDS” (TECHNION RESEARCH AND DEVELOPMENT FOUNDATION LTD., priority 2006, published 2019).
Values joined by “and” are separate entries in the source; they are usually repeats but may differ in a detail not shown here. Identical values can stand only once. Like-named read-outs stand apart in the source and are kept apart here.

How the values were obtained:
[1] = Analytical fractionation (centrifugation) and RP-HPLC determination of vitamin D2 content in micelle pellet and serum; assay type: physicochemical; conditions: for recovered vitamin D2 found incorporated into the micelles (encapsulation efficiency): D2-rCM suspension
Description: Micelle preparations were centrifuged at 20° C. and 25,000×g for one hour and the supernatant was separated from the pellet by decantation. The supernatant was then ultra-filtered using Amicon 8050 stirred ultrafiltration cell with a 10,000 Da nominal molecular weight limit membrane (Millipore). All fractions were collected and analyzed for vitamin D2 content.
Each sample was then poured into a separatory funnel. […] After gentle mixing the phases were allowed to separate.

C=C1CC[C@H](O)C/C1=C/C=C1\CCC[C@]2(C)[C@@H]([C@H](C)/C=C/[C@H](C)C(C)C)CC[C@@H]12 [vitamin D2, Vitamin D2]
Percent of vitamin D2 remaining, micelle pellet (0 h): 100%
Percent of vitamin D2 remaining, UV exposed serum (control II) (serum, 0 h): 100%
Percent of vitamin D2 remaining, serum (serum, 0 h): 100%
Percent of vitamin D2 remaining, UV exposed serum (control II) (serum, 3 h): 0.11%
vitamin concentration in the micelle pellet compared to the supernatant (serum) ([1]; CM prepared by ultra-high pressure homogenization): 4-5 times
vitamin content of pellet ([1]; CM prepared by ultra-high pressure homogenization, pellet): 30.3±0.4 micrograms/mL
vitamin content of supernatant ([1]; CM prepared by ultra-high pressure homogenization, supernatant): 6.7±0.7 micrograms/mL
recovered vitamin D2 found incorporated into the micelles (encapsulation efficiency) ([1]; more typically): 45-60%
recovered vitamin D2 found incorporated into the micelles (encapsulation efficiency) ([1]; overall range): 25-75%
vitamin D2 concentration in the rCM ([1]; D2-rCM, micelle pellet): 44 to 57 µg/mL
vitamin D2 concentration in serum ([1]; D2-rCM, serum): 2 to 8 µg/mL
vitamin D2 concentration in the rCM relative to its concentration in serum ([1]; D2-rCM, more typically): 4-10 times and 5-10 times
